Patent publication US20100261731A1, “Method for Treating a Disease, Disorder or Adverse Effect Caused by an Elevated Serum Concentration of an UGT1A1 Substrate” (Abbott Laboratories, priority 2009, published 2010)

Tests used:
[1] = Ethinylestradiol pharmacokinetics alone and with ritonavir in healthy female volunteers; format: in vivo, human
Description: This was an open-label, single-center study in healthy female volunteers who had not received an oral contraceptive for a minimum of six months prior to study start. Subjects received the first dose of oral contraceptive containing 50 μg of ethinyl estradiol on Day 1. […] On Day 15, 300 mg q12h was administered, 400 mg q12h was given on Day 16, and 500 mg q12h was administered thereafter. […] Blood samples for ethinylestradiol concentrations were collected for 48 h after each of the oral contraceptive doses.
Twenty-seven subjects were enrolled in the study. […] Data from these four subjects were therefore excluded from summary statistics. The mean ±SD age of the 23 subjects who completed the study was 34±10 yrs (range 19 to 45 yrs), the mean ±SD weight was 67.3±10.9 kg (range 50.8 to 90.3 kg), and the mean ±SD height was 167±7 cm (range 155 to 180 cm). […]
Analysis of serum samples for determination of ethinyl estradiol was performed at Pharmaco LSR, Richmond, Va. Ethinylestradiol serum concentrations were determined using a gas chromatography/mass spectrometry (GC/MS) method. […] This method has been validated over 17α-ethinylestradiol concentrations ranging from 2.00 to 256 pg/mL for a 1.0 mL serum volume, with a minimum quantitation limit of 2.00 pg/mL.
Ethinylestradiol pharmacokinetic parameters were estimated following two single doses, on Day 1 and Day 29, using noncompartmental methods. The pharmacokinetic parameters were calculated using the intended sampling times; all samples were collected within 10% of intended sampling times. […] The area under the plasma concentration-time curve (AUC∞) was calculated as the sum of AUCt, the area up to the last measurable concentration computed using the linear trapezoidal rule, and the extrapolation to infinity, calculated as the quotient of the last measurable concentration (Ct) and the terminal elimination rate constant (β). The terminal elimination rate constant was calculated as the negative of the slope of the regression of the logarithms of the plasma concentrations vs. time, starting at 18 h post-dose. […]

[2] = tested on: 1-naphthol glucuronidation; experiment: Hepatic 1-naphthol glucuronidation activity in liver microsomes of treated rats
UGT1A1 = experiment: Hepatic 17α-ethinylestradiol glucuronidation activity in liver microsomes of treated rats
[3] = tested on: UDP-glucuronosyltransferase 1 family, member 1; experiment: Rat liver microarray (Affymetrix Rat U34), UGT1A probe induction; format: in vivo, Sprague-Dawley rats; conditions: 3-Day Studies
[4] = tested on: UDP glucuronosyltransferase, exon 1.; experiment: as above; format: in vivo, Sprague-Dawley rats
[5] = tested on: UDP-glucuronosyltransferase 1A (UGT1A); experiment: Rat liver microarray, all UGT1A probe sets; format: in vivo, Sprague-Dawley rats; conditions: dose levels of 100 mg/kg and higher, after 1 and 3 days of treatment
[6] = tested on: 3-methylcholanthrene-inducible UDP-glucuronosyltransferase; experiment: Rat liver microarray (Affymetrix Rat U34), UGT1A probe induction; format: in vivo, Sprague-Dawley rats
[7] = tested on: bilirubin conjugation in human microsomes; conditions: in vitro system of human microsomes; cited from earlier work
[8] = subjects taking atazanavir, one study; cited from earlier work
UGT1A1 isoform = target: T1, UGT1A1 isoform (Homo sapiens, UniProt P22309); conditions: human cells transfected with the UGT1A1 isoform; cited from earlier work
T1 sequence (P22309 26-533): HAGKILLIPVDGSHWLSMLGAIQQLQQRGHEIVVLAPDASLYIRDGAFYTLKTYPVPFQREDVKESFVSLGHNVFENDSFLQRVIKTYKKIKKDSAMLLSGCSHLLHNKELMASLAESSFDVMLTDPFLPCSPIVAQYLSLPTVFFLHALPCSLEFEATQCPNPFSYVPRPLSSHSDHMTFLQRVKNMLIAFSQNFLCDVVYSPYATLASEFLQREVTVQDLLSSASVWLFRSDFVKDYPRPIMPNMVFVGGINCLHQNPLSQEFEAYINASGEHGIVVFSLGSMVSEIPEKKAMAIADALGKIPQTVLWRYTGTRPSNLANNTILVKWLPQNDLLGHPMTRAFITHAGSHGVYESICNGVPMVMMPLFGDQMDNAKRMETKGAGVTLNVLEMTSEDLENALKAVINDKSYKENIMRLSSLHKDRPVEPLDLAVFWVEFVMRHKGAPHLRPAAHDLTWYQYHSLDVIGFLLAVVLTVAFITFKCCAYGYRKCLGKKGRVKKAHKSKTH

[9] = tested on: bilirubin-conjugating activity; conditions: cited from earlier work
[10] = serum ethinylestradiol, single 50 μg oral contraceptive dose, Mean ± SD, n = 23, alone Day 1, with ritonavir 500 mg q12h Day 29
[11] = 1-Day Studies, 50 mg/kg oral (second column)
[12] = 3-Day Studies, 100 mg/kg oral daily
[13] = 3-Day Studies, 125 mg/kg oral daily

**Q.** Which Tmax [1, 10] does the source give for C#C[C@]1(O)CC[C@H]2[C@@H]3CCc4cc(O)ccc4[C@H]3CC[C@@]21C [Ethinylestradiol, 17α-ethinylestradiol] here?
**A.** 4.0 ± 1.7 h

**Q.** And the “β (terminal elimination rate constant)” value [1, 10]?
**A.** 0.0407 ± 0.0082 h⁻¹

**Q.** What about the “time at which serum ethinylestradiol concentrations peaked post-dose” value ([1]; single dose of oral contraceptive) of the same compound?
**A.** approximately 4 h

**Q.** Which results are given for CCC1(c2ccccc2)C(=O)NC(=O)NC1=O [Phenobarbitol]?
**A.** 1-naphthol glucuronidation ([2]; Females, T3: phenobarbital 50 mg/kg intraperitoneal daily 4 days, 50 μM substrate): 9.3 ± 0.4 nmol/mg/min; 1-naphthol glucuronidation ([2]; Females, T3: phenobarbital 50 mg/kg intraperitoneal daily 4 days, 1000 μM substrate): 46.4 ± 8.6 nmol/mg/min; 1-naphthol glucuronidation ([2]; Males, T3: phenobarbital 50 mg/kg intraperitoneal daily 4 days, 50 μM substrate): 15.4 ± 3.1 nmol/mg/min; 1-naphthol glucuronidation ([2]; Males, T3: phenobarbital 50 mg/kg intraperitoneal daily 4 days, 1000 μM substrate): 41.0 ± 5.0 nmol/mg/min; 17α-ethinylestradiol glucuronidation (UGT1A1; Females, T3: phenobarbital 50 mg/kg intraperitoneal daily 4 days, 100 μM substrate): 91.0 ± 34.0 pmol/mg/min; 17α-ethinylestradiol glucuronidation (UGT1A1; Females, T3: phenobarbital 50 mg/kg intraperitoneal daily 4 days, 250 μM substrate): 360.6 ± 88.1 pmol/mg/min; 17α-ethinylestradiol glucuronidation (UGT1A1; Males, T3: phenobarbital 50 mg/kg intraperitoneal daily 4 days, 100 μM substrate): 45.1 ± 16.5 pmol/mg/min; 17α-ethinylestradiol glucuronidation (UGT1A1; Males, T3: phenobarbital 50 mg/kg intraperitoneal daily 4 days, 250 μM substrate): 258.5 ± 98.5 pmol/mg/min

**Q.** Which results are given for CC(C)c1nc(CN(C)C(=O)N[C@H](C(=O)N[C@@H](Cc2ccccc2)C[C@H](O)[C@H](Cc2ccccc2)NC(=O)OCc2cncs2)C(C)C)cs1 [Ritonavir]?
**A.** Fold change ([3]; 50 mg/kg oral daily (first column)): 1.31 fold; Fold change ([3]; 50 mg/kg oral daily (second column)): 1.33 fold; 1-naphthol glucuronidation ([2]; Females, T1: ritonavir 15 mg/kg oral daily 14 days, 50 μM substrate): 7.3 ± 1.2 nmol/mg/min; 1-naphthol glucuronidation ([2]; Females, T1: ritonavir 15 mg/kg oral daily 14 days, 1000 μM substrate): 33.7 ± 5.2 nmol/mg/min; 1-naphthol glucuronidation ([2]; Females, T2: ritonavir 50 mg/kg oral daily 14 days, 50 μM substrate): 10.0 ± 2.7 nmol/mg/min; 1-naphthol glucuronidation ([2]; Females, T2: ritonavir 50 mg/kg oral daily 14 days, 1000 μM substrate): 37.7 ± 4.9 nmol/mg/min; 1-naphthol glucuronidation ([2]; Males, T1: ritonavir 15 mg/kg oral daily 14 days, 50 μM substrate): 9.5 ± 1.5 nmol/mg/min; 1-naphthol glucuronidation ([2]; Males, T1: ritonavir 15 mg/kg oral daily 14 days, 1000 μM substrate): 23.0 ± 2.5 nmol/mg/min; 1-naphthol glucuronidation ([2]; Males, T2: ritonavir 50 mg/kg oral daily 14 days, 50 μM substrate): 8.3 ± 1.4 nmol/mg/min; 1-naphthol glucuronidation ([2]; Males, T2: ritonavir 50 mg/kg oral daily 14 days, 1000 μM substrate): 22.8 ± 4.3 nmol/mg/min; Fold change [4, 11]: 2.43 fold; Fold change [4, 12]: 3.96 fold; Fold change [4, 13]: 5.06 fold; UG1A levels for all probe sets [5]: consistent increase; 17α-ethinylestradiol glucuronidation (UGT1A1; Females, T1: ritonavir 15 mg/kg oral daily 14 days, 100 μM substrate): 54.5 ± 24.0 pmol/mg/min; 17α-ethinylestradiol glucuronidation (UGT1A1; Females, T1: ritonavir 15 mg/kg oral daily 14 days, 250 μM substrate): 336.4 ± 75.8 pmol/mg/min; 17α-ethinylestradiol glucuronidation (UGT1A1; Females, T2: ritonavir 50 mg/kg oral daily 14 days, 100 μM substrate): 146.5 ± 26.0 pmol/mg/min; 17α-ethinylestradiol glucuronidation (UGT1A1; Females, T2: ritonavir 50 mg/kg oral daily 14 days, 250 μM substrate): 590.9 ± 101.2 pmol/mg/min; 17α-ethinylestradiol glucuronidation (UGT1A1; Males, T1: ritonavir 15 mg/kg oral daily 14 days, 100 μM substrate): 58.8 ± 2.2 pmol/mg/min; 17α-ethinylestradiol glucuronidation (UGT1A1; Males, T1: ritonavir 15 mg/kg oral daily 14 days, 250 μM substrate): 171.8 ± 38.1 pmol/mg/min; 17α-ethinylestradiol glucuronidation (UGT1A1; Males, T2: ritonavir 50 mg/kg oral daily 14 days, 100 μM substrate): 34.0 ± 10.0 pmol/mg/min; 17α-ethinylestradiol glucuronidation (UGT1A1; Males, T2: ritonavir 50 mg/kg oral daily 14 days, 250 μM substrate): 290.1 ± 45.6 pmol/mg/min; glucuronidation of 17α-ethinylestradiol, a UGT1A1 substrate (UGT1A1; both male and female rats): significantly increase; increase in glucuronidation of 17α-ethinylestradiol (UGT1A1; both male and female rats treated with 50 mg/kg/day): 2 fold; Fold change ([6]; 1-Day Studies, 20 mg/kg oral (first column)): 1.83 fold; Fold change ([6]; 1-Day Studies, 20 mg/kg oral (second column)): 1.54 fold; Fold change ([6]; 1-Day Studies, 50 mg/kg oral (first column)): 1.63 fold; Fold change [6, 11]: 2.1 fold; Fold change ([6]; 3-Day Studies, 50 mg/kg oral daily (first column)): 1.54 fold; Fold change ([6]; 3-Day Studies, 50 mg/kg oral daily (second column)): 1.85 fold; Fold change ([6]; 3-Day Studies, 75 mg/kg oral daily): 1.97 fold; Fold change [6, 12]: 2.26 fold; Fold change [6, 13]: 2.25 fold

**Q.** With COC(=O)N[C@H](C(=O)N[C@@H](Cc1ccccc1)[C@@H](O)CN(Cc1ccc(-c2ccccn2)cc1)NC(=O)[C@@H](NC(=O)OC)C(C)(C)C)C(C)(C)C [atazanavir, Atazanavir] as the compound, how does the “inhibition of bilirubin conjugation” value [7] read?
**A.** inhibits bilirubin conjugation in the micromolar range

**Q.** What about the “subjects exhibiting unconjugated hyperbilirubinemia” value [8] of the same compound?
**A.** 57%

**Q.** What about the “inhibition of bilirubin conjugation” value (UGT1A1 isoform) of the same compound?
**A.** inhibits bilirubin conjugation in the micromolar range

**Q.** With CC(C)(C)NC(=O)[C@@H]1CN(Cc2cccnc2)CCN1C[C@@H](O)C[C@@H](Cc1ccccc1)C(=O)N[C@H]1c2ccccc2C[C@H]1O [indinavir, Indinavir] as the compound, how does the “inhibition of bilirubin-conjugating activity” value [9] read?
**A.** direct inhibition of bilirubin-conjugating activity
